Columns and labels:
L6 cells = test: 2-DG uptake in L6 cells; type: cell-based, rat; settings: for effect on insulin-stimulated glucose uptake (2-DG): insulin 100nM, C2cer 10μM, with or without Prep1(54-72)
Description: Figure 6 Effect of Prep1(54-72) peptide on glycogen content and 2-DG uptake L6 control and Prep1 overexpressing cells were stimulated with Insulin (100nM) and/or C2cer (10μM) and incubated with Prep1(54-72). (A) Glycogen content and (B) 2-DG uptake were measured as described in methods. Bars represent the mean ± SD of three independent experiments. Asterisks denote statistically significant differences (*p<0.05; **p<0.01; ***p<0.001).
Glycogen was isolated from L6 cells homogenized in 0.1% SDS, saturated with Na2SO4 for 30 minutes at 37°C, followed by ethanol (EtOH) precipitation. Glycogen content was determined as previously described. 2-DG uptake by the L6 cells was measured as previously reported.

[1] = tested on: IR tyrosine phosphorylation; test: IR tyrosine phosphorylation, immunoprecipitation and Western blot; type: cell-based, rat; settings: insulin 100nM; for effect on insulin-stimulated IR tyrosine phosphorylation: L6 cells, C2cer 10μM 18h, with or without Prep1(54-72)
Description: Figure 4 Prep1(54-72) peptide restores the insulin signaling inhibited by C2cer and Prep1 L6 cells were stimulated with insulin (100nM) and incubated with Prep1(54-72) in presence of C2cer at 10μM for 18h (A-B) or stable transfection of Prep1 (C-D). Protein lysates were immunoprecipitated with specific IR or IRS1 antibodies and analyzed by Western blot using antibodies for phosphotyrosines (pY) and beta-actin as loading control. Blots were detected by ECL and autoradiography. The autoradiographs are representative of three independent experiments. Asterisks denote statistically significant differences (*p<0.05; **p<0.01).
Total cell lysates were obtained and separated by SDS-PAGE. Briefly, cells were solubilized with lysis buffer containing 50mM HEPES, 150mM NaCl, 10mM EDTA, 10mM Na4P2O7, 2mM sodium orthovanadate, 50mM NaF, 1mM phenylmethylsulfonyl fluoride, 10μg/ml aprotinin, 10μg/ml leupeptin, pH 7.4, and 1% (v/v) Triton X-100. Lysates were clarified by centrifugation at 12,000g for 20 minutes at 4°C. The protein concentrations in the cell lysates were measured using a Bio-Rad DC (detergent compatible) assay. Immunoprecipitation and Western blot analysis have been performed as previously described.

Row | Molecule | reduction of insulin-stimulated glucose uptake (L6 cells; C2cer exposure (abstract)) [fold] | effect on insulin-stimulated glucose uptake (2-DG) (L6 cells) | effect on insulin-stimulated IR tyrosine phosphorylation [1] | IR tyrosine phosphorylation in Prep1 overexpressing cells ([1]; Prep1L6 cells (stably transfected with Prep1 cDNA), incubated with Prep1(54-72))
1 | CCCCCCCCCCCCC/C=C/[C@@H](O)[C@H](CO)NC(C)=O [C2cer, D-erythro-Sphingosine, N-Acetyl-, reference compound] | 2.1 | negatively modulated | blocked | –
2 | Ac-KQAIYRHPLFPLLALLFEK-NH2 [Prep1(54-72)] | – | recovered the insulin response | restored | stimulated similarly to the control cells

From article PMC5641094, “A peptide antagonist of Prep1-p160 interaction improves ceramide-induced insulin resistance in skeletal muscle cells” (Oncotarget, 2017)
